Data on 14 compounds can be found in patent US20220033407A1, “N-(pyridin-2-ylsulfonyl)cyclopropanecarboxamide Derivatives and their Use in the Treatment of Disease” (NOVARTIS AG, priority 2018, published 2022).

The target of one experiment is T1, delF508-CFTR (Homo sapiens, UniProt P13569, DEL508-508).
T1 construct: functional activity of the CFTR channel (Chloride ion transport) in patient derived primary human bronchial epithelial cells; host or cells: patient-derived primary human bronchial epithelial cells (HBECs), delF508-CFTR
Kind of experiment: delF508-CFTR functional activity in primary human bronchial epithelial cells (HBECs), Multi-Transepithelial Clamp Circuit (MTECC-24) assay, equivalent short circuit current. It is filed as cell-based. To be noted: primary CF HBECs; for MTECC24 CFHBEC-Amax %: relative to reference combination 2 μM 3-(6-(1-(2,2-difluorobenzo[d][1,3]dioxol-5-yl)cyclopropane-1-carboxamido)-3-methylpyridin-2-yl)benzoic acid (24 h) + 0.5 μM N-(2,4-di-tert-butyl-5-hydroxyphenyl)-4-oxo-1,4-dihydroquinoline-3-carboxamide; for EC50: test compound added 24 h before assay, potentiator (S)-3-amino-6-methoxy-N-(3,3,3-trifluoro-2-hydroxy-2-methylpropyl)-5-(trifluoromethyl)picolinamide present at assay, mean of at least two replicates, read-out: MTECC24 CFHBEC-EC50. An excerpt:
Measurement of delF508-CFTR Functional Activity in Primary Human Bronchial Epithelial Cells (HBECs) Using Multi-Transepithelial Clamp Circuit (MTECC-24) Assay
This assay measures the functional activity of the CFTR channel (Chloride ion transport) in patient derived primary human bronchial epithelial cells with forskolin activation and in the presence of the CFTR corrector wherein the corrector is a compound of the invention and the potentiator is (S)-3-amino-6-methoxy-N-(3,3,3-trifluoro-2-hydroxy-2-methylpropyl)-5-(trifluoromethyl)picolinamide.
Primary human delF508-CFTR bronchial epithelial cells were purchased from Asterand and cultured according to previously established methods (Fulcher et al. (2005) Methods Mol Med 107: 183-206). Briefly, vendor supplied cells were rapidly defrosted and added to a T175 flask in 50 mL growth media (Lonza BEBM media with Lonza BEGM singlequots). Media was replaced after 24 h and then cells were fed every other day until cells were 80-90% confluent, at which point cells were cryopreserved. These P1 vials were thawed at 37° C. as needed and added to T175 flasks in 50 mL growth media at 5×10^5 cells/flask. Media was replaced after 24 h, and then cells were fed every other day until 80-90% confluent. Cells were lifted with 5 mL Accutase at 37° C. for 5 minutes, centrifuged at 1000 rpms for 5 min (300 g), and resuspended in differentiation media (50% BEBM in DMEM, BEGM singlequots, all trans retinoic acid (5×10·8M)). Cells were then counted and cell suspension was added to collagen coated inserts at 3×10^4 cells/insert in 0.15 mL with 0.5 mL differentiation media on the basolateral side.
Apical and basolateral media were replaced on alternate days, and following day 7 (or when confluent plus 2 days), air liquid interface was established for approximately two weeks by removal of apical media. One day prior to use on the MTECC24 system (EP-Devices, EP Design, Belgium), 0.15 mL of warmed (37° C.) PBS was added to the apical surface of the cultures and returned to humidifier (37° C., 5% CO2 incubator) for 30 min before aspirating the apical surface to remove any mucus.
Compound treatments were then prepared. Compound dilutions, typically a 10 point concentration response with 1 in 3 dilution steps, were made in 100% DMSO before dilution 1 in 1000 into differentiation medium with a final DMSO concentration of 0.1% or 0.2% for the study. Compound containing medium was then transferred into the wells of a 24 well plate at 0.5 mL per well and warmed for 30 min in a 37° C. incubator prior to transferring washed inserts into the compound containing plates. Cells were incubated in compound containing medium (basolateral only) for 24 h prior to measurement in the MTECC24 system.
Following 24 hr treatment, compound dilutions were prepared again, diluted 1 in 1000 into 37° C. assay medium (F-12 Coon's modified, 20 mM HEPES pH7.4 with TRIS Base, No FCS or bicarbonate). Cells which were treated for 24 h with test compound were then transferred into plates containing 0.75 mL compound treatment in assay medium (basolateral) and 0.25 mL of the compound containing assay medium was added to the apical surface. The plates were then transferred to the heated plate compartments of the MTECC24 system for 45 min prior to measurements (this can also be done in a non-CO2 37° C. humidified incubator). Basolateral temperature should not exceed 36.5° C. and apical temperature should be approximately 35.5° C.
Modulators were added sequentially as follows while the MTECC24 instrument recorded the equivalent short circuit current (Ieq)
Prior to dilution into F-12 medium the stocks are as follows: Amiloride stock is 10 mM in H2O
Forskolin Stock is 10 mM in 100% DMSO
(S)-3-amino-6-methoxy-N-(3,3,3-trifluoro-2-hydroxy-2-methylpropyl)-5-(trifluoromethyl)picolinamide is 0.5 mM stock in 100% DMSO INH-172 (4-[[4-Oxo-2-thioxo-3-[3-trifluoromethyl)phenyl]-5-thiazolidinylidene]methyl]benzoic acid) stock is 30 mM in 100% DMSO […]

The target of a further experiment is T2, delF508-CFTR-HRP (Homo sapiens, UniProt P13569, DEL508-508).
T2 construct: expressed in transfected cells
Kind of experiment: Measurement of delF508-CFTR-HRP surface expression in CFBE41o- cells (HRP luminescence).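 As to DelF508-CFTR-HRP Amax %: percent efficacy relative to a reference CFTR corrector compound.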 It is filed as cell-based. To be noted: for Emax: CFBE41o-, read-out: DelF508-CFTR-HRP Amax %; for EC50: mean of at least two replicates. The essentials: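 Stably transfected CFBE41o- cells carrying HRP in the fourth extracellular loop of delF508-CFTR, induced with 500 ng/mL doxycycline for 48 h, then compound-treated 24 h at 37° C (10-point, 3-fold, top 10 μM). Surface HRP detected by luminescent substrate; EC50 from logistic fit, triplicates, normalized to lowest-concentration median.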

T1 sequence (P13569 with tags, fused parts or gaps DEL508-508): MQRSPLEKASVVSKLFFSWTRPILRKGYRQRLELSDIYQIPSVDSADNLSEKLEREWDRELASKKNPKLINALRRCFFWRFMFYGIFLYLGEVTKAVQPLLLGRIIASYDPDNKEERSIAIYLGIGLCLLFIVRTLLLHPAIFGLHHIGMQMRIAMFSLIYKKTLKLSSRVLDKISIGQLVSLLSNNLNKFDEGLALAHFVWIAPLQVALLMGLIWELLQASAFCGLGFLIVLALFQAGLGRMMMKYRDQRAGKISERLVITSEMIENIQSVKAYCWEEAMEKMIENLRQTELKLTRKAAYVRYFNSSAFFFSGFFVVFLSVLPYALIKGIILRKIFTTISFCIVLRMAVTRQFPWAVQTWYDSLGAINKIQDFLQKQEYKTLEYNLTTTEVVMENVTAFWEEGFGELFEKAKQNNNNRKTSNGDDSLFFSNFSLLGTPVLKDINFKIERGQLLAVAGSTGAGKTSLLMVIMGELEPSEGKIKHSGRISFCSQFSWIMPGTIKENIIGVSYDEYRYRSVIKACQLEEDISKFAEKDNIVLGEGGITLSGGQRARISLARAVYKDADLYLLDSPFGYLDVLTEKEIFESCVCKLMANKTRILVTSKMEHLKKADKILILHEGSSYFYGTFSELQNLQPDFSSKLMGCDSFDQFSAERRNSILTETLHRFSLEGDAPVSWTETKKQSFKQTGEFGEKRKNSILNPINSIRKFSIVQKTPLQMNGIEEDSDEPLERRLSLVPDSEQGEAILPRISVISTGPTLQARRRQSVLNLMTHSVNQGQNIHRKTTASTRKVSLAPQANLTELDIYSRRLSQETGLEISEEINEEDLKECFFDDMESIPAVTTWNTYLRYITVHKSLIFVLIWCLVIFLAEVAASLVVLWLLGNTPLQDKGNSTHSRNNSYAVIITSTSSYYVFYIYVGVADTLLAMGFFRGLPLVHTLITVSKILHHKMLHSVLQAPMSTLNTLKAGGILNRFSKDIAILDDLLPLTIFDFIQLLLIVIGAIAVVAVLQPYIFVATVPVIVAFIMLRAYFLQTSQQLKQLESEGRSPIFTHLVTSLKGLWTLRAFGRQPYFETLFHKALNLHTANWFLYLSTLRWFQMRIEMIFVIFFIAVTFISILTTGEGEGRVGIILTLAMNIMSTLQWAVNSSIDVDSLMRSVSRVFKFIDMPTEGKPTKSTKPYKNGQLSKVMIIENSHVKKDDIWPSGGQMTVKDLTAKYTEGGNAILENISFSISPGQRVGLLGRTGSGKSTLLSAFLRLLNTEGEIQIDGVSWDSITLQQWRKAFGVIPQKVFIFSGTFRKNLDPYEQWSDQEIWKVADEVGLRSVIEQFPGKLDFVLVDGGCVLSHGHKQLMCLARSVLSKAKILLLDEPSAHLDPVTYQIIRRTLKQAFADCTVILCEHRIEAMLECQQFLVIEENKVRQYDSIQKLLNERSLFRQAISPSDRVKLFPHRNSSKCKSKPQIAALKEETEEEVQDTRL
T2 sequence (P13569 with tags, fused parts or gaps DEL508-508): as above

With `CC1(O)CN(c2cccc(S(=O)(=O)NC(=O)C3(Oc4cc(Cl)ccc4C4CC5(CCC5)C4)CC3)n2)C1` [Example 7-10, 1-(5-Chloro-2-(spiro[3.3]heptan-2-yl)phenoxy)-N-((6-(3-hydroxy-3-methylazetidin-1-yl)pyridin-2-yl)sulfonyl)cyclopropane-1-carboxamide], at delF508-CFTR, the “MTECC24 CFHBEC-Amax %” value worked out at 115.5% and the EC50 was 356 nM. Further, at delF508-CFTR-HRP, the Emax amounted to 367% and the EC50 was 1670 nM.

Regarding `O=C(NS(=O)(=O)c1cccc(N2CC(O)C2)n1)C1(Oc2cc(Cl)ccc2C2CCC3(CC2)CC3)CC1` [Example 4-12, 1-(5-Chloro-2-(spiro[2.5]octan-6-yl)phenoxy)-N-((6-(3-hydroxyazetidin-1-yl)pyridin-2-yl)sulfonyl)cyclopropane-1-carboxamide], on delF508-CFTR, the “MTECC24 CFHBEC-Amax %” value came to 82% and the concentration for a half-maximal effect (EC50) was 51 nM. Also, on delF508-CFTR-HRP, the Emax came out at 418% and it took 1920 nM to reach a half-maximal effect (EC50).

On to `Cc1ccc(C2CCCCC2)c(OC2(C(=O)NS(=O)(=O)c3cccc(N4CCO[C@@H](C)C4)n3)CC2)c1` [Example 2-52, (S)-1-(2-Cyclohexyl-5-methylphenoxy)-N-((6-(2-methylmorpholino)pyridin-2-yl)sulfonyl)cyclopropane-1-carboxamide], for which, on delF508-CFTR, the “MTECC24 CFHBEC-Amax %” value came to 75% and the concentration for a half-maximal effect (EC50) is 7 nM. For the same compound, at delF508-CFTR-HRP, the Emax is 416% and the 50% effective concentration (EC50) stood at 1290 nM.

For `CC(C)(C)C1CCC(Oc2ccc(Cl)cc2OC2(C(=O)NS(=O)(=O)c3cccc(N4CC[C@H](O)C4)n3)CC2)CC1` (stereo partly drawn) [Example 6-7, (S)-1-(2-((4-(tert-butyl)cyclohexyl)oxy)-5-chlorophenoxy)-N-((6-(3-hydroxypyrrolidin-1-yl)pyridin-2-yl)sulfonyl)cyclopropanecarboxamide], on delF508-CFTR, the “MTECC24 CFHBEC-Amax %” value is listed as 203.9% and the EC50 stood at 116 nM. In addition, on delF508-CFTR-HRP, the Emax was determined as 446% and it took 760 nM to reach a half-maximal effect (EC50).

On to `Cc1ccc(C2CCCCC2)c(OC2(C(=O)NS(=O)(=O)c3cccc(N4CCC(C)(NC(=O)NC5CC5)CC4)n3)CC2)c1` [Example 2-11, 1-(2-Cyclohexyl-5-methylphenoxy)-N-((6-(4-(3-cyclopropylureido)-4-methylpiperidin-1-yl)pyridin-2-yl)sulfonyl)cyclopropanecarboxamide], for which, on delF508-CFTR, the “MTECC24 CFHBEC-Amax %” value was 77% and the concentration giving a half-maximal response (EC50) is 20 nM. Also, on delF508-CFTR-HRP, the Emax worked out at 286% and the response was half-maximal at 2590 nM (EC50).

With `Cc1ccc(-c2cccc(C(F)(F)F)c2)c(OC2(C(=O)NS(=O)(=O)c3cccc(N4CC[C@@H](O)C4)n3)CC2)c1` [Example 5-11, (R)—N-((6-(3-Hydroxypyrrolidin-1-yl)pyridin-2-yl)sulfonyl)-1-((4-methyl-3′-(trifluoromethyl)-[1,1′-biphenyl]-2-yl)oxy)cyclopropane-1-carboxamide], on delF508-CFTR, the “MTECC24 CFHBEC-Amax %” value is 68% and the concentration for a half-maximal effect (EC50) was 20 nM. Besides, on delF508-CFTR-HRP, the Emax was 371% and the 50% effective concentration (EC50) stood at 2180 nM.

Turning to `Cc1ccc(CC(C)C)c(OC2(C(=O)NS(=O)(=O)c3cccc(N4CCC[C@@H](CO)C4)n3)CC2)c1` [Example 4-8, (R)-N-((6-(3-(hydroxymethyl)piperidin-1-yl)pyridin-2-yl)sulfonyl)-1-(2-isobutyl-5-methylphenoxy)cyclopropane-1-carboxamide], at delF508-CFTR, the “MTECC24 CFHBEC-Amax %” value came to 80% and the EC50 was found to be 11 nM. In addition, on delF508-CFTR-HRP, the Emax came to 388% and the EC50 came to 2200 nM.

For `Cc1ccc(C2CCCCC2)c(OC2(C(=O)NS(=O)(=O)c3cccc(N4CCC(C)(N)CC4)n3)CC2)c1` [Example 2-9, N-((6-(4-Amino-4-methylpiperidin-1-yl)pyridin-2-yl)sulfonyl)-1-(2-cyclohexyl-5-methylphenoxy)cyclopropanecarboxamide], on delF508-CFTR, the “MTECC24 CFHBEC-Amax %” value came to 121% and the concentration for a half-maximal effect (EC50) came to 103 nM. Moreover, at delF508-CFTR-HRP, the Emax was determined as 253% and the concentration giving a half-maximal response (EC50) amounted to 2570 nM.

With `Cc1ccc(C2CCCCC2)c(OC2(C(=O)NS(=O)(=O)c3cccc(NCC(C)O)n3)CC2)c1` (centres unmarked) [Example 2-45, 1-(2-Cyclohexyl-5-methylphenoxy)-N-((6-((2-hydroxypropyl)amino)pyridin-2-yl)sulfonyl)cyclopropane-1-carboxamide], on delF508-CFTR, the “MTECC24 CFHBEC-Amax %” value is given as 95% and the concentration giving a half-maximal response (EC50) is 6 nM. For the same compound, on delF508-CFTR-HRP, the Emax turned out to be 816% and a half-maximal effect (EC50) was put at 2230 nM.

`Cc1ccc(C2CCCCC2)c(OC2(C(=O)NS(=O)(=O)c3cccc(N4CCC(C(=O)OC5CCCC5)CC4)n3)CC2)c1` [Example 2-7]: at delF508-CFTR, the “MTECC24 CFHBEC-Amax %” value turned out to be 63% and the EC50 stood at 16 nM. In addition, at delF508-CFTR-HRP, the Emax is 389% and the EC50 turned out to be 730 nM.

On to `Cc1ccc(OC2Cc3ccccc3C2)c(OC2(C(=O)NS(=O)(=O)c3cccc(N4CC[C@H](O)C4)n3)CC2)c1` [Example 6-10, (S)-1-(2-((2,3-dihydro-1H-inden-2-yl)oxy)-5-methylphenoxy)-N-((6-(3-hydroxypyrrolidin-1-yl)pyridin-2-yl)sulfonyl)cyclopropanecarboxamide], for which, on delF508-CFTR, the “MTECC24 CFHBEC-Amax %” value stood at 79.2% and the EC50 was found to be 1440 nM. Moreover, on delF508-CFTR-HRP, the Emax was determined as 350% and the EC50 stood at 2670 nM.

For the compound `Cc1ccc(C2CCCCC2)c(OC2(C(=O)NS(=O)(=O)c3cccc(N4CCC(C(=O)O)CC4)n3)CC2)c1` [Example 2-6, 1-(6-(N-(1-(2-cyclohexyl-5-methylphenoxy)cyclopropanecarbonyl)sulfamoyl)pyridin-2-yl)piperidine-4-carboxylic acid], on delF508-CFTR, the “MTECC24 CFHBEC-Amax %” value is 62% and the EC50 was determined as 131 nM. At delF508-CFTR-HRP, the Emax came out at 34% and it took 4560 nM to reach a half-maximal effect (EC50).

On to `Cc1ccc(C2CCCCC2)c(OC2(C(=O)NS(=O)(=O)c3cccc(N4CC(C)(O)C4)n3)CC2)c1` [Example 2-16, 1-(2-Cyclohexyl-5-methylphenoxy)-N-((6-(3-hydroxy-3-methylazetidin-1-yl)pyridin-2-yl)sulfonyl)cyclopropanecarboxamide], for which, at delF508-CFTR, the “MTECC24 CFHBEC-Amax %” value came out at 101% and the EC50 stood at 12 nM. Besides, on delF508-CFTR-HRP, the Emax came to 642% and the EC50 worked out at 2520 nM.

Take `Cc1ccc(C2CCC(F)(F)CC2)c(OC2(C(=O)NS(=O)(=O)c3cccc(NC[C@@H](C)O)n3)CC2)c1` [Example 3-4, (R)-1-(2-(4,4-Difluorocyclohexyl)-5-methylphenoxy)-N-((6-((2-hydroxypropyl)amino)pyridin-2-yl)sulfonyl)cyclopropane-1-carboxamide]: on delF508-CFTR, the “MTECC24 CFHBEC-Amax %” value was 87% and the EC50 amounted to 92 nM. For the same compound, at delF508-CFTR-HRP, the Emax stood at 318% and a half-maximal effect (EC50) was put at 3850 nM.

One may read the EC50 as the concentration that produces a half-maximal response.
